Results on eleven compounds are retold here after US20060009506A1, “Drugs for the treatment of neoplastic disorders” (Odyssey Thera, Inc., priority 2004, published 2006).

The subject of one test is U-87 MG cells. Put plainly: MTT proliferation assay, glioblastoma U-87 MG. In kind it is cell-based. The following applies: Homo sapiens, Tumor Cell: Glioblastoma (U-87 MG), 120 hours, concentrations tested in microM. The text has this:
(§1) We first screened compounds derived from the known pharmacopeia and from a selected natural product collection using two types of assays: (a) measurements of post-translational modifications of proteins; (b) measurements of protein-protein interactions. For the purpose of measuring post-translational modifications of proteins, we used immunofluorescence methods combined with phospho-specific antibodies. For the purpose of quantifying and localizing protein complexes we used fluorescence methods based on protein-fragment complementation assays (PCA). ‘Hits’ from the initial screens were then tested for antiproliferative activity in up to 5 different human tumor cell lines. […] For drugs with antiproliferative activity in PC-3 cells, dose-response curves were generated to determine the EC50 for antiproliferative activity and additional tumor cell lines were tested to determine the breadth of activity. Methods for assay development, validation, screening, and testing of antiproliferative activity are described below.
(§2) Cells were maintained in various media as follows: A549, LoVo and PC-3 (Ham's F12K medium with 2 mM L-glutamine and 1.5 g/L sodium bicarbonate), MIA PaCa-2 (Dulbecco's modified Eagle's medium with 4 mM L-glutamine and 4.5 g/L glucose), U87-MG (MEM+Earle's BSS). Medium for each cell line was supplemented with 10% FBS and […] Penecillin/Streptomycin. All cells were grown in incubators set at 37° C., 5% CO2. Thiazolyl Blue Tetrazolium Bromide (MTT) based proliferation assays were performed to assess the anti-proliferative activities of the compounds on these cells. Cells were seeded in 96 well plates at a density of 750 cells/well 24 hours prior to compound treatment. The cells were incubated with varying concentrations of compounds for 120 hours. […] Drug treatment was performed in 5 replicate wells. Background absorbance was established by wells containing medium but no cells. Vehicle (DMSO) only was used as control. MTT (Sigma-Aldrich, St. Louis, Mo.) was added to each well at a final concentration of 0.5 mg/ml. Following a 2 hour incubation at 37° C., medium in the wells was replaced with 0.15 ml DMSO. The plates were agitated for 15 min using a microtiter plate shaker.
A general note: Tetrazolium assays rely on reduction of a dye to a coloured formazan, in cell work by metabolically active cells.

The next test relates to cancer pathways. In words: Screening of cancer pathways in human cells (PCA and phospho-immunofluorescence). Type of test: cell-based. The following applies: cancer pathway in which the drug was active; screened at 10 micromolar, HEK293 cells.
From the text: as §1
Immunofluorescence was performed on drug-treated cells using antibodies that specifically recognize phosphorylated forms of key signaling proteins. HEK293T cells were seeded in black-walled, poly-lysine coated 96-well plates (Greiner) at a density of 30,000/well. After 24 hours, cells in duplicate wells were treated with drugs. 100 ng/ml hEGF added to the cells during the last 5 min of drug treatment. The cells were rinsed once with PBS and fixed with 4% formaldehyde for 10 min. The cells were subsequently permeabilized with 0.25% Triton X-100 in PBS and incubated with 3% BSA for 30 min to block non-specific antibody binding. Each of the 4 sets of identically treated cells were then incubated with rabbit antibodies against phosphorylated CREB (Ser133), hsp27 (Ser82), pERK (T202/Y204) (Cell Signaling), or BSA in PBS. The cells were rinsed with PBS and incubated with Alexa488 conjugated goat anti-rabbit secondary antibody (Molecular Probes). Cell nuclei were stained with Hoechst33342 (Molecular Probes). Images were acquired using Discovery-1 High Content Imaging System (Molecular Devices). Background fluorescence due to nonspecific binding by the secondary antibody was established with the use of cells that were incubated with BSA/PBS and without primary antibodies. Fluorescence intensities were quantitated using Image J-based image analysis algorithm as described below.
Reporter fragments for PCA were generated by oligonucleotide synthesis (Blue Heron Biotechnology, Bothell, Wash.). First, oligonucleotides coding for polypeptide fragments YFP[1]and YFP[2] […] Next, PCR mutagenesis was used to generate the mutant fragments IFP[1] and IFP[2]. The IFP[1] fragment corresponds to YFP[1]-(F46L, F64L, M153T) and the IFP[2] fragment corresponds to YFP[2]-(V163A, S175G). […] The YFP[1], YFP[2], IFP[1] and IFP[2] fragments were amplified by PCR to incorporate restriction sites and a linker sequence, described below, in configurations that would allow fusion of a gene of interest to either the 5′- or 3′-end of each reporter fragment. The reporter-linker fragment cassettes were subcloned into a mammalian expression vector (pcDNA3.1Z, Invitrogen) that had been modified to incorporate the replication origin (oriP) of the Epstein Barr virus (EBV). […] Additionally, these vectors still retain the SV40 origin, allowing for episomal expression in cell lines expressing the SV40 large T antigen (e.g. HEK293T, Jurkat or COS). […] PCA fusion constructs were prepared for a large number of proteins known to participate in cellular pathways (Table 1 and Table 2). The full coding sequence for each gene of interest was amplified by PCR from a sequence-verified full-length cDNA.

The test system of the next test is cancer cells. In words: Antiproliferative activity against cancer cells (cell line not stated). The following applies: general statement. In kind it is cell-based, human.
From the text: as §1
Cells were maintained in various media as follows: A549, LoVo and PC-3 (Ham's F12K medium with 2 mM L-glutamine and 1.5 g/L sodium bicarbonate), MIA PaCa-2 (Dulbecco's modified Eagle's medium with 4 mM L-glutamine and 4.5 g/L glucose), U87-MG (MEM+Earle's BSS). Medium for each cell line was supplemented with 10% FBS and […] Penecillin/Streptomycin. All cells were grown in incubators set at 37° C., 5% CO2. Thiazolyl Blue Tetrazolium Bromide (MTT) based proliferation assays were performed to assess the anti-proliferative activities of the compounds on these cells. Cells were seeded in 96 well plates at a density of 750 cells/well 24 hours prior to compound treatment. The cells were incubated with varying concentrations of compounds for 120 hours. Compound concentrations range from 0.03 to 100 microM (half log increments) except for alpha-Tomatine (0.001-100 microM, half log increments), Neriifolin (0.0002-100 microM) and Peruvoside (0.01-100 microM). Drug treatment was performed in 5 replicate wells. Background absorbance was established by wells containing medium but no cells. Vehicle (DMSO) only was used as control. MTT (Sigma-Aldrich, St. Louis, Mo.) was added to each well at a final concentration of 0.5 mg/ml. Following a 2 hour incubation at 37° C., medium in the wells was replaced with 0.15 ml DMSO. The plates were agitated for 15 min using a microtiter plate shaker. […] Mean absorbance values were calculated from 5 replicate wells of each drug treatment following subtraction of background absorbance from blank samples and plotted as a percentage of control.

The subject of a further test is A549 cells. Put plainly: MTT proliferation assay, non-small cell lung carcinoma A549. Type of test: cell-based, Human. As to conditions: Homo sapiens, Tumor Cell: NSCLC (A549), concentrations tested in microM.
From the text: as §1, §2

Another test has as its system LoVo cells. In words: MTT proliferation assay, colon adenocarcinoma LoVo. In kind it is cell-based. As to conditions: Homo sapiens, Tumor Cell: Colon (LoVo), 120 hours, concentrations tested in microM.
From the text: as §1, §2

A further test deals with MIA PaCa-2 cells. In words: MTT proliferation assay, pancreatic carcinoma MIA PaCa-2. The following applies: Homo sapiens, Tumor Cell: Pancreatic (MIA PaCa-2), concentrations tested in microM. In kind it is cell-based.
From the text: as §1, §2

The next test relates to PC-3 cells. Put plainly: MTT proliferation assay, prostate adenocarcinoma PC-3. Type of test: cell-based, Human. The following applies: for IC50: Homo sapiens, Tumor Cell: Prostate (PC-3), MTT, 120 hours, concentrations tested in microM.
From the text: as §1, §2

Where only a bound is given, the exact number is not on record here.

Consider `CC(C)c1c(C(=O)Nc2ccccc2)c(-c2ccccc2)c(-c2ccc(F)cc2)n1CC[C@@H](O)C[C@@H](O)CC(=O)O` [Atorvastatin], for which the IC50 (as a rule, the concentration at which inhibition is half-maximal) with U-87 MG cells amounted to 4600 nM. In addition, the “Pathway Activity” value with cancer pathways is “invasion/metastasis”. In addition, the “Antiproliferative activity against cancer cells” value in the test on cancer cells is reported as “substantial antiproliferative activity”.

Turning to `COC(=O)[C@H]1[C@H]2C[C@H]3c4[nH]c5cc(OC)ccc5c4CCN3C[C@H]2C[C@@H](OC(=O)c2cc(OC)c(OC)c(OC)c2)[C@@H]1OC` [Isoreserpine], the IC50 in the test with A549 cells (A549, 120 h) is 3950 nM; in the test with LoVo cells it was 2730 nM; in the test with MIA PaCa-2 cells (MIA PaCa-2, 120 h) it was 3920 nM; with PC-3 cells, 11700 nM; with U-87 MG cells, 9020 nM. The “Pathway Activity” value in the test with cancer pathways is recorded as “apoptosis”. Moreover, the “Antiproliferative activity against cancer cells” value in the test on cancer cells is given as “substantial antiproliferative activity”.

In the case of `O=C(Nc1ccc([N+](=O)[O-])cc1Cl)c1cc(Cl)ccc1O` [Niclosamide], the IC50 in the test with A549 cells (A549, 120 h) was 660 nM; in the test on LoVo cells it was 450 nM; with MIA PaCa-2 cells (MIA PaCa-2, 120 h) it was 590 nM; with PC-3 cells, 1330 nM; with U-87 MG cells it was 810 nM. Also, the “Pathway Activity” value in the test with cancer pathways is listed as “apoptosis”. Also, the “Antiproliferative activity against cancer cells” value in the test on cancer cells is given as “substantial antiproliferative activity”.

Regarding `CO[C@H]1[C@H](O)[C@H](O[C@H]2CC[C@@]3(C=O)[C@H](CC[C@@H]4[C@@H]3CC[C@]3(C)[C@@H](C5=CC(=O)OC5)CC[C@]43O)C2)O[C@@H](C)[C@@H]1O` [Peruvoside], the IC50 with A549 cells (120 hours) and in the test on MIA PaCa-2 cells (120 hours) was less than 30 nM each time. For the same compound, the “Pathway Activity” value in the test with cancer pathways is reported as “cell cycle”. Also, the “Antiproliferative activity against cancer cells” value in the test on cancer cells is listed as “substantial antiproliferative activity”.

With `CN(C)CCCN1c2ccccc2Sc2ccccc21` [Promazine], the IC50 in the test with A549 cells (A549, 120 h) came to 11900 nM; in the test with MIA PaCa-2 cells (MIA PaCa-2, 120 h), 1970 nM. For the same compound, the “Pathway Activity” value with cancer pathways is on record as “proliferation”. Moreover, the “Antiproliferative activity against cancer cells” value in the test with cancer cells is given as “substantial antiproliferative activity”.

In the case of `CC(CN1c2ccccc2Sc2ccccc21)N(C)C` (stereo not shown) [Promethazine], the IC50 was determined as 53800 nM with A549 cells (A549, 120 h) and 22200 nM in the test with MIA PaCa-2 cells (MIA PaCa-2, 120 h). The “Pathway Activity” value with cancer pathways is “proliferation”. Also, in the test with cancer cells, the “Antiproliferative activity against cancer cells” value is given as “substantial antiproliferative activity”.

`CCCCCCCCNC(C)C(O)c1ccc(SC(C)C)cc1` (stereo not shown) [Suloctidil]: the IC50 with A549 cells (A549, 120 h) is 780 nM; in the test with MIA PaCa-2 cells (MIA PaCa-2, 120 h), 180 nM. The “Pathway Activity” value in the test with cancer pathways is listed as “invasion/metastasis”. Also, in the test with cancer cells, the “Antiproliferative activity against cancer cells” value was “substantial antiproliferative activity”.

For `CC(C)(C)c1ccc(C(O)CCCN2CCC(C(O)(c3ccccc3)c3ccccc3)CC2)cc1` (stereo not shown) [Terfenadine], the IC50 with A549 cells (A549, 120 h) came to 550 nM; in the test with LoVo cells it was 990 nM; with MIA PaCa-2 cells (MIA PaCa-2, 120 h), 350 nM; in the test on PC-3 cells, 1320 nM; in the test with U-87 MG cells it was 380 nM. In the test on cancer pathways, the “Pathway Activity” value is “invasion/metastasis”. Further, the “Antiproliferative activity against cancer cells” value with cancer cells is “substantial antiproliferative activity”.

As to `C[C@H]1CC[C@]2(NC1)O[C@H]1C[C@H]3[C@@H]4CC[C@H]5C[C@@H](O[C@@H]6O[C@H](CO)[C@H](O[C@@H]7O[C@H](CO)[C@@H](O)[C@H](O[C@@H]8OC[C@@H](O)[C@H](O)[C@H]8O)[C@H]7O[C@@H]7O[C@H](CO)[C@@H](O)[C@H](O)[C@H]7O)[C@H](O)[C@H]6O)CC[C@]5(C)[C@H]4CC[C@]3(C)[C@H]1[C@@H]2C` [Tomatine], the values for the IC50 in the test on A549 cells (120 hours) and in the test with MIA PaCa-2 cells (120 hours) were 60 nM and 100 nM, respectively. The “Pathway Activity” value in the test on cancer pathways is on record as “invasion/metastasis”. The “Antiproliferative activity against cancer cells” value with cancer cells is listed as “substantial antiproliferative activity”.

`Cc1cccc(Nc2cc(Cl)nc(SCC(=O)O)n2)c1C` [WY-14643]: in the test with PC-3 cells (FIG. 1, compared to DMSO control), the “Antiproliferative activity in the PC-3 assay” value was “inactive”.

For the compound `CC1(C)CCC2=C(O1)c1ccccc1C(=O)C2=O` [beta-Lapachone], the IC50 with A549 cells (A549, 120 h) is 230 nM; in the test with LoVo cells it was 1400 nM; with MIA PaCa-2 cells (MIA PaCa-2, 120 h) it was 770 nM; in the test with PC-3 cells, 630 nM; with U-87 MG cells it was 860 nM. For the same compound, in the test with cancer pathways, the “Pathway Activity” value was “apoptosis”. The “Antiproliferative activity against cancer cells” value with cancer cells is reported as “substantial antiproliferative activity”.
